Measured values from patent publication US5344841A, “Bis-(hydroxylakylamino)-anthraquinone inhibitors of protein kinase C” (Sphinx Pharmaceuticals Corporation, priority 1992, dated 1994).
pIC50: −log10 of the molar value.

How the values were obtained:
[1] = test system: MCF-7 human breast tumor cell line; assay: Human tumor growth inhibition, 3H-thymidine incorporation, MCF-7; type: cell-based; settings: 3H-thymidine uptake; read-out: IC50 MCF-7
Source text: (§1) MCF-7 a human breast tumor cell line, and MCF-7/ADR an adriamycin resistant line of MCF-7 cells were obtained from the National Cancer Institute, Frederick, Md. NHEK a human keratinocyte cell line was obtained from Clonetic Corp., San Diego, Calif. 8226 a human myeloma cell line, 8226/MT a Mitoxantrone resistant line of 8226 cells, and 8226 ADR an adriamycin resistant line of 8226 cells were obtained from Dr. Bill Dalton, Arizona Cancer Center, Tuscon, Ariz.
(§2) Human tumor cells are trypsinized (0.05% trypsin, GIBCO), counted with a hemacytometer and seeded at a concentration of 10,000 cells/well in a 96 well microtiter plate. After allowing cells to attach to the surface overnight, the culture medium is aspirated and replaced with 100 μl of fresh medium. Test agents are diluted to determine dose response at 2× final concentration and added in quadruplicate at 100 μl/well to bring the total volume of each well to 200 μl. The microtiter plate is then incubated at 37° C. 5% CO2 overnight (18-24 hrs) before ^3 H-thymidine is added at a concentration of 0.5 μCi/well in 50 μl culture medium. The plate is incubated again for 4 hrs under the same conditions as above. Supernatant is then aspirated and 50 μl trypsin (0.05%, GIBCO) is added to each well. Cells are checked microscopically to determine detachment from surfaces, and plates are then harvested with a cell harvester (PHD, Cambridge Technology, Inc.) Filter papers corresponding to wells are placed in scintillation vials and counted to determine the amount of ^3 H-thymidine incorporated by the cells. Test agent response is compared to a positive control of cell wells with culture media only to determine the IC50. IC50 is the concentration of test compound required to inhibit fifty percent of the incorporation of ^3 H-thymidine into proliferating cells not exposed to test agent. Uptake of ^3 H-thymidine is a standard test for measuring the metabolism of cells. Cells which are actively proliferating take up ^3 H-thymidine, whereas cells that are not proliferating take up ^3 H-thymidine at much slower rates or not at all. Test agents that inhibit the uptake of ^3 H-thymidine thus slow the growth of cells.

[2] = test system: MCF-7/ADR adriamycin resistant line of MCF-7 cells; assay: Human tumor growth inhibition, 3H-thymidine incorporation, MCF-7/ADR; type: cell-based; settings: MCF-7/ADR vs MCF-7
Source text: as §1, §2

[3] = test system: 8226 human myeloma cell line; assay: Human tumor growth inhibition, 3H-thymidine incorporation, 8226; type: cell-based; settings: 3H-thymidine uptake, read-out: IC50 8226
Source text: as §1, §2

[4] = test system: 8226/ADR adriamycin resistant line of 8226 cells; assay: Human tumor growth inhibition, 3H-thymidine incorporation, 8226/ADR; type: cell-based; settings: 8226/ADR vs 8226
Source text: as §1, §2

NHEK human keratinocytes = assay: Human keratinocyte inhibition, 3H-thymidine incorporation; type: cell-based
Method: Human tumor cells are trypsinized (0.05% trypsin, GIBCO), counted with a hemacytometer and seeded at a concentration of 10,000 cells/well in a 96 well microtiter plate. After allowing cells to attach to the surface overnight, the culture medium is aspirated and replaced with 100 μl of fresh medium. Test agents are diluted to determine dose response at 2× final concentration and added in quadruplicate at 100 μl/well to bring the total volume of each well to 200 μl. The microtiter plate is then incubated at 37° C. 5% CO2 overnight (18-24 hrs) before ^3 H-thymidine is added at a concentration of 0.5 μCi/well in 50 μl culture medium. The plate is incubated again for 4 hrs under the same conditions as above. […] Cells are checked microscopically to determine detachment from surfaces, and plates are then harvested with a cell harvester (PHD, Cambridge Technology, Inc.) Filter papers corresponding to wells are placed in scintillation vials and counted to determine the amount of ^3 H-thymidine incorporated by the cells. […]
Proliferating keratinocytes (NHEK cells purchased from Clonetics, Inc. San Diego, Calif.) in second passage were grown in Keratinocyte Growth Medium (KGM) (Clonetics, Inc.) Cells were trypsinized with 0.025% trypsin (Clonetics), counted with a hemacytometer (Scientific Products), and seeded at a concentration of 2,500 cells/well in a 96 well microtiter plate. […]

P388 murine leukemia = assay: P388 leukemia tumor assay in mice, survival time; type: in vivo, mouse; settings: for % T/C p388 Leukemia: survival time
Source text: P388 Leukemia Tumors. Mice were young adult, pathogen-free, BALA/c×DBA/2 F1 (i.e., CD2F1) females purchased from Charles River Laboratories. The tumor line was the P388 murine leukemia, ascites form, obtained from the National Cancer Institute (NCI) Tumor Repository (Frederick, Md.). The tumor was maintained in the serial passage in mice by periodic intraperitoneal (ip) implantation. For this experiment, 10^6 hemacytometer-counted P388 murine leukemia cells were implanted ip into mice on Day 0. The mice were randomized into one untreated control group of 20 and 15 test groups of six mice each. All drug treatment was delivered ip on the basis of the average body weight of each group. […] Body weights were recorded on Days 1, 5, 9, 11, and 18. Deaths were recorded daily. Dying mice were necropsied, and the presence or absence of ascites or splenomegaly was recorded. Drug effectiveness was assessed on the basis of the survival time. Results were expressed as a percentage of the control survival time (Survival Time=T/C×100%; T=test animals; C=control animals). The criterion for effectiveness was determined by: T/C×100≥125 percent.

Melanotic Melanoma B16 = assay: Melanotic melanoma B16 test in mice, survival time; type: in vivo, mouse; settings: 100 mg/kg ip once daily for nine days
Method: Melanotic Melanoma B16 Test. The animals used were B6 C3 F1 mice, all of one sex, weighing a minimum of 18 g for males and 17 g for females and all within a 4 g weight range at the start of the test. The test group comprised 9 or 10 mice. The tumor was implanted in each of the test mice by the subcutaneous injection of 0.5 ml of a tumor homogenate prepared by homogenizing a 1 g portion of melanotic melanoma in 10 ml of cold physiological saline. Compound 1a-1 suspended in hydroypropylcellulose was administered intraperitoneally at a dose of 100 mg/kg once daily for nine consecutive days staring on Day 1 relative to the day of tumor inoculation (Day 0). The control mice received injections of hydroxyproplcellulose vehicle only. The mice were weighed and survivors were recorded on a regular basis for sixty days. The median survival times and the ratio of the median survival times for treated (T) to control (C) mice were calculated. The median survival time of the nontreated rumored mice ranged from 15 to 17 days. Drug effectiveness was assessed on the basis of survival time. Results were expressed as a percentage of the control survival time (Survival Time T/C×100%; T=test animals; C=control animals). The criterion for effectiveness was determined by T/C×100≥125 percent.

[5] = test system: MCF-7/ADR adriamycin resistant line of MCF-7 cells; assay: Human tumor growth inhibition, 3H-thymidine incorporation, MCF-7/ADR; type: cell-based; settings: NCI/ADR-RES, 3H-thymidine uptake
[6] = test system: 8226/ADR adriamycin resistant line of 8226 cells; assay: Human tumor growth inhibition, 3H-thymidine incorporation, 8226/ADR; type: cell-based; settings: 3H-thymidine uptake
[7] = test system: 8226/MT Mitoxantrone resistant line of 8226 cells; assay: Human tumor growth inhibition, 3H-thymidine incorporation, 8226/MT

## CCN(CC)CC(O)CNc1ccc(NCC(O)CCl)c2c1C(=O)c1ccccc1C2=O (stereo not drawn) [Compound 1a-1]
[1]
  pIC50: 6.60
[2]
  Resistance Ratio (IC50 MCF-7/ADR to IC50 MCF-7): 2
[3]
  pIC50: 6.00
[4]
  Resistance Ratio (8226/ADR): 0.08
NHEK human keratinocytes
  pIC50: 6.80
P388 murine leukemia; 67 mg/kg, Q1D × 9, ip
  % T/C p388 Leukemia: 140%
P388 murine leukemia; 150 mg/kg Q1D × 9, ip
  % T/C p388 Leukemia: 130%
P388 murine leukemia; all dosages and schedules
  survival time of mice (in words): effectively increased the survival time
Melanotic Melanoma B16
  % T/C (B16 median survival time): 129%
  effect on survival time of mice (in words): effective for increasing survival time of the mice
[5]
  pIC50: 6.30
[6]
  pIC50: 7.10
[7]; 8226/MT vs 8226
  Resistance Ratio (8226/MT): 0.24
[7]; Homo sapiens, read-out: IC50 8226/MT
  pIC50: 6.62
[7]; text wording of ratio
  ratio of IC50 for 8226 cells to IC50 for 8226/MT cells: 0.24
